# Measured values: patent US20180326101A1, “COMPOUND AND PHARMACEUTICAL COMPOSITION FOR TARGETED DRUG DELIVERY” (SeeCure Taiwan Co., Ltd., priority 2017, published 2018)
# Target: T1, XC transporter (Homo sapiens, UniProt Q9UPY5)
# T1 construct: endogenous in cells; host or cells: U251 cell line
# T1 sequence (Q9UPY5 1-501): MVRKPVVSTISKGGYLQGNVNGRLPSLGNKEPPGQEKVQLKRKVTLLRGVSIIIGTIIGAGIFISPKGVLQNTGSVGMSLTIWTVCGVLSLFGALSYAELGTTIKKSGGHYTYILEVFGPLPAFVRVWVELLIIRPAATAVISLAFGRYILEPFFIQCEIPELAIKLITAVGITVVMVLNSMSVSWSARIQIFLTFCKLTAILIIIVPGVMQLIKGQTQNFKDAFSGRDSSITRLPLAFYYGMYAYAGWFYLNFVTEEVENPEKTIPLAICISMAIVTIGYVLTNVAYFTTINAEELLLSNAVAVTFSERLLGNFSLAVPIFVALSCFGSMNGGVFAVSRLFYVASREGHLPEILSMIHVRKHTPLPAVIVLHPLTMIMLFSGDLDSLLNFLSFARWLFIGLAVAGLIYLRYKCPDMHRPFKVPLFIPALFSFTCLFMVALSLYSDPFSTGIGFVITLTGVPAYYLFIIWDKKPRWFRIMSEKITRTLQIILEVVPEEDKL
# T1 sequence (P08195 1-529 partner): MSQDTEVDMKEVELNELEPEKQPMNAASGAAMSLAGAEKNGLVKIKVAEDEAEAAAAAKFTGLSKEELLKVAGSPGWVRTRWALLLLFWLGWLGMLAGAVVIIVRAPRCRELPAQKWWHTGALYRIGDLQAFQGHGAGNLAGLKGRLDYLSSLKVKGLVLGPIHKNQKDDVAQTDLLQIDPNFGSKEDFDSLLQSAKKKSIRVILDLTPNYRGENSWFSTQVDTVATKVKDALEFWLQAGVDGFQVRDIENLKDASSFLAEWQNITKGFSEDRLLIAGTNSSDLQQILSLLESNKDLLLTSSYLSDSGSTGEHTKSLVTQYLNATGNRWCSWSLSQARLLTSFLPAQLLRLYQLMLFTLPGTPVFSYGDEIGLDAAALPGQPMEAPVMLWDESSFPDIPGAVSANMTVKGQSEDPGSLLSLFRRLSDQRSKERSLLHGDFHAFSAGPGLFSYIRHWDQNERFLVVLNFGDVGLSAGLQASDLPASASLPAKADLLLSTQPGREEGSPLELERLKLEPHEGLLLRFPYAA
# Experiment: Blocking studies of cellular uptake with sulfasalazine (SAS) or cysteine
# Type: cell-based
# Conditions: U251 cells, 2 hours incubation
# Method: The cellular uptake of the ^99mTc-SAC-A and the ^99mTc-SAC-B compounds were performed using an U251 cell line. The cells were planted onto tissue culture plates at a concentration of 350,000 cells per well for the uptake and blocking studies. The cells were cultured in Eagle's MEM with Earle's BSS (90%) and fetal bovine serum (10%) under standard culture conditions (37° C., 95% humidified air and 5% CO2). After seeding, the cells were incubated at 37° C. for 48 hours to allow for cell attachment and growth. After reaching approximately 70% confluency of cells, the cells are ready for use in the cellular uptake/blocking experiments.
# Specifically, upon reaching 70% cell confluency, the growth media were aspirated and the cells were washed twice with phosphate buffered saline (PBS). Serum-free media and the ^99mTc-SAC-A compound or ^99mTc-SAC-B compound obtained above were respectfully added to the each of the wells for performing the cellular uptake experiment. For the blocking studies, the cells were pre-treated with 500 μM and 1000 μM of sulfasalazine (SAS; a XC transporter specific inhibitor) or 500 μM and 1000 μM of cysteine (a competitive inhibitor) for 30 minutes prior to the addition of the ^99mTc-SAC-A or ^99mTc-SAC-B compounds. […] After 2 hours, the cells in each of the wells are washed with PBS, the cells are then collected and its radioactivity were counted using a gamma counter. […]
smiles,measurement,setting,value
N[C@@H](CS[C@@H](CC(=O)O)C(=O)O)C(=O)O [SAC-B],cellular uptake when blocking agent cysteine (competitive inhibitor) was added,500 μM and 1000 μM cysteine pre-treatment 30 min,mostly inhibited
same,cellular uptake when blocking agent SAS (XC transporter specific inhibitor) was added,500 μM and 1000 μM sulfasalazine pre-treatment 30 min,mostly inhibited
